# Target: Aurora B/INCENP (Homo sapiens, UniProt Q96GD4)
# Assay: Determination of inhibition of AIK: Aurora B/INCENP Direct Fluorescence Polarization (IMAP) assay
# Format: biochemical
# Settings: 10 uM ATP, 0.8 nM Aurora B/INCENP, 45 min at room temperature; read-out: IC50 of Exemplified Compounds Against AIK B
# Method: Detection of the reaction product is performed by addition of Progressive IMAP binding reagent (Molecular Devices). Reaction product may be determined quantitatively by FP using an Analyst HT plate reader (Molecular Devices) with an excitation wavelength at 485 nm and emission at 530 nm and using a Fluorescein 505 dichroic mirror.
# The assay reaction may be initiated as follows: 2 ul of (3×) 300 nM Fl-Peptide/30 uM ATP was added to each well of the plate, followed by the addition of 2 ul of (3×) inhibitor (2 fold serial dilutions for 11 data points for each inhibitor) containing 15% DMSO. Two microliters of (3×) 2.4 nM AuroraB/INCENP solution may be added to initiate the reaction (final enzyme concentration was 0.8 nM for Aurora B/INCENP). The reaction mixture may then be incubated at room temperature for 45 min, and quenched and developed by addition of 20 ul of 1 to 400 diluted Progressive IMAP binding reagent in 1× proprietary Progressive IMAP binding buffer A. Fluorescence polarization readings of the resulting reaction mixtures may be measured after a 60-minute incubation at room temperature.
# IC50 values may be calculated by non-linear curve fitting of the compound concentrations and fluorescent polarization values to the standard IC50 equation.
# Sequence of Aurora B/INCENP (Q96GD4 whole entry): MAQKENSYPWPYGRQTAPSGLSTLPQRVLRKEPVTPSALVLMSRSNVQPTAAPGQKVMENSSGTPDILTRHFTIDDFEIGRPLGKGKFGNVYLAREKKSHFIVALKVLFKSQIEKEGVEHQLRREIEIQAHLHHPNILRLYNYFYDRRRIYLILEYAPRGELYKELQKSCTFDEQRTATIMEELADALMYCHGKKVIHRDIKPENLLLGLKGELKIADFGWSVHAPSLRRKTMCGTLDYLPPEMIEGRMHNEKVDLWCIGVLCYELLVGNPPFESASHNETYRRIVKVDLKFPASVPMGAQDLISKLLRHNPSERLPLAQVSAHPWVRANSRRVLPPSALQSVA
# Sequence of Aurora B/INCENP (Q9NQS7 whole entry partner): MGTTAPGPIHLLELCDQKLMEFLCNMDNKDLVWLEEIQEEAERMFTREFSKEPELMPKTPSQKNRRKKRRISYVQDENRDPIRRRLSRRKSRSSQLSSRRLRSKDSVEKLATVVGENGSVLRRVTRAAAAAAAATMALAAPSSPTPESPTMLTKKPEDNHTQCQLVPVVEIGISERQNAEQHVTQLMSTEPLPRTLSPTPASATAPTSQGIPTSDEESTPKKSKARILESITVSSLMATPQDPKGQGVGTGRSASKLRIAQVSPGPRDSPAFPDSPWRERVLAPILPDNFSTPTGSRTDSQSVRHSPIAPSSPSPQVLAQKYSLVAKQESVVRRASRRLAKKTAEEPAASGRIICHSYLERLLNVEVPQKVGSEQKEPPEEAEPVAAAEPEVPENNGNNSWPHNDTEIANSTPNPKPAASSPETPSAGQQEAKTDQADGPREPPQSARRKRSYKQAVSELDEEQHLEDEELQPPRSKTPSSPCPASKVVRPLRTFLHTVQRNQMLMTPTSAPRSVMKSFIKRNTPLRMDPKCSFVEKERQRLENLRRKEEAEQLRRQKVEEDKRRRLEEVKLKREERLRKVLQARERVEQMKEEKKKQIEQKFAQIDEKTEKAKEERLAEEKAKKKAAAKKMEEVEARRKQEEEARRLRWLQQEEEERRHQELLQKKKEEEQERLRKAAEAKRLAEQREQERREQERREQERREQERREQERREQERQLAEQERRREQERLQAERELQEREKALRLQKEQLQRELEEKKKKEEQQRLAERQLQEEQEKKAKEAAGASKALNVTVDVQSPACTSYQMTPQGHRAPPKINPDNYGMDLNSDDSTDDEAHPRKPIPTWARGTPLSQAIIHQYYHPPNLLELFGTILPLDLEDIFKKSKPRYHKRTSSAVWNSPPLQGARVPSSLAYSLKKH
row,IC50 [nM],SMILES
1,≥ 11,"COc1ccc(-c2cccc(NC(=O)C3CC3)c2)c2c1[nH]c1ncc(C)cc12 [Compound 163, N-(3-(8-methoxy-3-methyl-9H-pyrido[2,3-b]indol-5-yl)phenyl)cyclopropanecarboxamide]"
2,≥ 11,CCNS(=O)(=O)c1cccc(-c2cc(C(=O)NC3CCN(C)CC3)c(C)c3[nH]c4ncc(C)cc4c23)c1 [Compound 153]
3,6 to 10,"CN1CCC(COc2ccc(-c3cccc(S(=O)(=O)C4CC4)c3)c3c2[nH]c2ncc(Cl)cc23)CC1 [Compound 286, 3-chloro-5-(3-(cyclopropylsulfonyl)phenyl)-8-((1-methylpiperidin-4-yl)methoxy)-9H-pyrido[2,3-b]indole]"
4,6 to 10,"CCNS(=O)(=O)c1cccc(-c2ccc(OCCCN(C)C)c3[nH]c4ncc(C)cc4c23)c1 [Compound 295, 3-(8-(3-(dimethylamino)propoxy)-3-methyl-9H-pyrido[2,3-b]indol-5-yl)-N-ethylbenzenesulfonamide]"
5,≤ 5,"CCS(=O)(=O)c1cccc(-c2ccc(OCCCN(C)CCOP(=O)(O)O)c3[nH]c4ncc(C)cc4c23)c1 [Compound 308, 2-((3-(5-(3-(ethylsulfonyl)phenyl)-3-methyl-9H-pyrido[2,3-b]indol-8-yloxy)propyl)(methyl)amino)ethyl dihydrogen phosphate]"
6,≥ 11,"CCS(=O)(=O)c1cccc(-c2ccc(OCC(F)(F)F)c3[nH]c4ncc(C)cc4c23)c1 [Compound 173, 5-(3-(ethylsulfonyl)phenyl)-3-methyl-8-(2,2,2-trifluoroethoxy)-9H-pyrido[2,3-b]indole]"
7,≤ 5,"Cc1cnc2[nH]c3c(OC[C@@H](CN(C)C)OP(=O)(O)O)ccc(-c4cccc(S(=O)(=O)C5CC5)c4)c3c2c1 [Compound 315, (R)-1-(5-(3-(cyclopropylsulfonyl)phenyl)-3-methyl-9H-pyrido[2,3-b]indol-8-yloxy)-3-(dimethylamino)propan-2-yl dihydrogen phosphate]"
8,6 to 10,"CCS(=O)(=O)c1cccc(-c2cc(C(=O)NCCN(C)C)cc3[nH]c4ncc(C)cc4c23)c1 [Compound 142, 5-(3-Ethanesulfonyl-phenyl)-3-methyl-9H-pyrido[2,3-b]indole-7-carboxylic acid (2-dimethylamino-ethyl)-amide]"
9,6 to 10,"Cc1cnc2[nH]c3c(OCC4CCN(C)CC4)ccc(-c4cccc(S(=O)(=O)C5CC5)c4)c3c2c1 [Compound 179, 5-(3-(cyclopropylsulfonyl)phenyl)-3-methyl-8-((1-methylpiperidin-4-yl)methoxy)-9H-pyrido[2,3-b]indole]"
10,6 to 10,"CCN(CCCOc1ccc(-c2cccc(S(=O)(=O)C3CC3)c2)c2c1[nH]c1ncc(C)cc12)CCOP(=O)(O)O [Compound 272, 2-((3-(5-(3-(cyclopropylsulfonyl)phenyl)-3-methyl-9H-pyrido[2,3-b]indol-8-yloxy)propyl)(ethyl)amino)ethyl dihydrogen phosphate]"
11,6 to 10,"CCS(=O)(=O)c1cccc(-c2ccc(OC[C@H](O)CN(C)C)c3[nH]c4ncc(C)cc4c23)c1 [Compound 232, (R)-1-(dimethylamino)-3-(5-(3-(ethylsulfonyl)phenyl)-3-methyl-9H-pyrido[2,3-b]indol-8-yloxy)propan-2-ol]"
12,6 to 10,CCS(=O)(=O)c1cccc(-c2cc(C(=O)NCCN(C)C)c(C)c3[nH]c4ncc(C)cc4c23)c1 [Compound 113]
13,≥ 11,"CCS(=O)(=O)c1cccc(-c2cc(C(=O)NCCCN3CCN(C)CC3)c(C)c3[nH]c4ncc(C)cc4c23)c1 [Compound 95, 5-(3-(ethylsulfonyl)phenyl)-3,8-dimethyl-N-(3-(4-methylpiperazin-1-yl)propyl)-9H-pyrido[2,3-b]indole-7-carboxamide]"
14,6 to 10,"CCS(=O)(=O)c1cccc(-c2ccc(OCC3CCN(C)CC3)c3[nH]c4ncc(C)cc4c23)c1 [Compound 177, 5-(3-(ethylsulfonyl)phenyl)-3-methyl-8-((1-methylpiperidin-4-yl)methoxy)-9H-pyrido[2,3-b]indole]"
15,6 to 10,"CN1CCC(COc2ccc(-c3cccc(C(=O)NC4CC4)c3)c3c2[nH]c2ncc(Cl)cc23)CC1 [Compound 285, 3-(3-chloro-8-((1-methylpiperidin-4-yl)methoxy)-9H-pyrido[2,3-b]indol-5-yl)-N-cyclopropylbenzamide]"
16,≥ 11,"Cc1cnc2[nH]c3c(OCCCN(C)C)ccc(-c4cccc(NC(=O)C5CC5)c4)c3c2c1 [Compound 195, N-(3-(8-(3-(dimethylamino)propoxy)-3-methyl-9H-pyrido[2,3-b]indol-5-yl)phenyl)cyclopropanecarboxamide]"
17,6 to 10,"CCS(=O)(=O)c1cccc(-c2cnc(OCCCN(C)C)c3[nH]c4ncc(C)cc4c23)c1 [Compound 52, {3-[5-(3-Ethanesulfonyl-phenyl)-3-methyl-9H-dipyrido[2,3-b;4′,3′-d]pyrrol-8-yloxy]-propyl}-dimethyl-amine]"
18,6 to 10,"CCS(=O)(=O)c1cccc(-c2ccc(C)c3[nH]c4ncc(C)cc4c23)c1 [Compound 18, 5-(3-(ethylsulfonyl)phenyl)-3,8-dimethyl-9H-pyrido[2,3-b]indole]"
19,6 to 10,"Cc1cnc2[nH]c3c(C)c(C(=O)NC4CCN(C)CC4)cc(-c4cccc(S(=O)(=O)C5CC5)c4)c3c2c1 [Compound 154, 5-(3-(cyclopropylsulfonyl)phenyl)-3,8-dimethyl-N-(1-methylpiperidin-4-yl)-9H-pyrido[2,3-b]indole-7-carboxamide]"
20,≥ 11,"c1ccc(-c2cccc3[nH]c4ncccc4c23)cc1 [Compound 5, 5-phenyl-9H-pyrido[2,3-b]indole]"
21,≥ 11,"CCS(=O)(=O)c1cccc(-c2cc(C(=O)N[C@H]3CCCN(C)C3)c(C)c3[nH]c4ncc(C)cc4c23)c1 [Compound 117, (S)-5-(3-(ethylsulfonyl)phenyl)-3,8-dimethyl-N-(1-methylpiperidin-3-yl)-9H-pyrido[2,3-b]indole-7-carboxamide]"
22,6 to 10,"Cc1cnc2[nH]c3c(OCC4CCN(C)CC4)ccc(-c4cccc(NC(=O)C5CC5)c4)c3c2c1 [Compound 182, N-(3-(3-methyl-8-((1-methylpiperidin-4-yl)methoxy)-9H-pyrido[2,3-b]indol-5-yl)phenyl)cyclopropanecarboxamide]"
23,≥ 11,"Cc1cnc2[nH]c3c(C)c(C(=O)NCCN(C)C)cc(-c4cccc(NC(=O)C5CC5)c4)c3c2c1 [Compound 112, 5-(3-(cyclopropanecarboxamido)phenyl)-N-(2-(dimethylamino)ethyl)-3,8-dimethyl-9H-pyrido[2,3-b]indole-7-carboxamide]"
24,6 to 10,"CCOc1ccc(-c2cccc(S(=O)(=O)CC)c2)c2c1[nH]c1ncc(C)cc12 [Compound 171, 8-ethoxy-5-(3-(ethylsulfonyl)phenyl)-3-methyl-9H-pyrido[2,3-b]indole]"
25,6 to 10,"Cc1cnc2[nH]c3c(C)c(C(=O)NC4CCN(C)CC4)cc(-c4cccc(NC(=O)C5CC5)c4)c3c2c1 [Compound 120, 5-(3-(cyclopropanecarboxamido)phenyl)-3,8-dimethyl-N-(1-methyl-piperidin-4-yl)-9H-pyrido[2,3-b]indole-7-carboxamide]"
26,≥ 11,"CCS(=O)(=O)c1cccc(-c2cc(C(=O)NCC3CCN(C)CC3)c(C)c3[nH]c4ncc(C)cc4c23)c1 [Compound 114, 5-(3-(ethylsulfonyl)phenyl)-3,8-dimethyl-N-((1-methylpiperidin-4-yl)methyl)-9H-pyrido[2,3-b]indole-7-carboxamide]"
27,6 to 10,"CCS(=O)(=O)c1cccc(-c2cc(C(=O)NCCOC)c(C)c3[nH]c4ncc(C)cc4c23)c1 [Compound 90, N-(2-(methoxy)ethyl)-5-(3-(ethylsulfonyl)phenyl)-3,8-dimethyl-9H-pyrido[2,3-b]indole-7-carboxamide]"
28,≥ 11,"Cc1cnc2[nH]c3c(OCC4CCN(C)CC4)ccc(-c4cccc(C(=O)NC5CC5)c4)c3c2c1 [Compound 178, N-cyclopropyl-3-(3-methyl-8-((1-methylpiperidin-4-yl)methoxy)-9H-pyrido[2,3-b]indol-5-yl)benzamide]"
29,≤ 5,"Cc1cnc2[nH]c3c(OC[C@H](CN(C)C)OP(=O)(O)O)ccc(-c4cccc(S(=O)(=O)C5CC5)c4)c3c2c1 [Compound 314, (S)-1-(5-(3-(cyclopropylsulfonyl)phenyl)-3-methyl-9H-pyrido[2,3-b]indol-8-yloxy)-3-(dimethylamino)propan-2-yl dihydrogen phosphate]"

row,SMILES,IC50 [nM]
1,"CCOc1ncc(-c2cccc(S(=O)(=O)CC)c2)c2c1[nH]c1ncc(C)cc12 [Compound 51, 5-(3-Ethanesulfonyl-phenyl)-8-ethoxy-3-methyl-9H-dipyrido[2,3-b;4′,3′-d]pyrrole]",6 to 10
2,"CCS(=O)(=O)c1cccc(-c2cnc(NCCCN(C)C)c3[nH]c4ncc(C)cc4c23)c1 [Compound 41, N′-[5-(3-Ethanesulfonyl-phenyl)-3-methyl-9H-dipyrido[2,3-b;4′,3′-d]pyrrol-8-yl]-N,N-dimethyl-propane-1,3-diamine]",6 to 10
3,"CCS(=O)(=O)c1cccc(-c2cc(C(=O)NC3CCN(C)CC3)c(C)c3[nH]c4ncc(C)cc4c23)c1 [Compound 88, 5-(3-(ethylsulfonyl)phenyl)-3,8-dimethyl-N-(1-methylpiperidin-4-yl)-9H-pyrido[2,3-b]indole-7-carboxamide]",6 to 10

# From patent US20100120717A1, “KINASE INHIBITORS” (priority 2006, published 2010)
